Experimental data reported in ChEMBL document CHEMBL1201862, “PubChem BioAssay data set” (2004).
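Interpolation was linear, between the two tested concentrations surrounding the appropriate level; five concentrations were tested over 48 hours in 96-well plates. GI50 = concentration required for 50% inhibition of growth.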 Active and inactive are the calls of the source. Cut-off read from the data, not from the text of the source: active = GI50 up to about 1.1 µM and inactive = higher.

Assays:
Assay in all cases: DTP human tumour cell line panel, 48 h
CCRF-CEM = system: CCRF-CEM
NCI-H460 = system: NCI-H460
T47D = system: T47D
SW-620 = system: SW-620
OVCAR-4 = system: OVCAR-4
K562 = system: K562
A549 = system: A549
MOLT-4 = system: MOLT-4
SF-268 = system: SF-268
IGROV-1 = system: IGROV-1
SNB-19 = system: SNB-19
EKVX = system: EKVX
SN12C = system: SN12C
SK-MEL-28 = system: SK-MEL-28
PC-3 = system: PC-3
LOX IMVI = system: LOX IMVI
COLO 205 = system: COLO 205
MCF7 = system: MCF7
SF-295 = system: SF-295
HOP-92 = system: HOP-92

Measured: GI50

COC(=O)NNC(c1ccc(Cl)cc1)c1ccc(Cl)cc1
inactive: CCRF-CEM 17.1 µM | NCI-H460 16.5 µM | T47D 19.9 µM | SW-620 25.1 µM | OVCAR-4 20.8 µM | K562 22.2 µM | A549 15.3 µM | MOLT-4 16.5 µM | SF-268 21.8 µM | IGROV-1 16.4 µM | SNB-19 17.3 µM | EKVX 18.8 µM | SN12C 19.5 µM | SK-MEL-28 18.7 µM | PC-3 12.2 µM | LOX IMVI 16.4 µM | COLO 205 18.1 µM | MCF7 23.7 µM

C/C=C/C(C/C=C(\C)CO[Si](C)(C)C(C)(C)C)O[Si](C)(C)C(C)(C)C (centres undefined)
inactive: CCRF-CEM > 100 µM | NCI-H460 > 100 µM | T47D > 100 µM | SW-620 > 100 µM | OVCAR-4 > 100 µM | K562 > 100 µM | A549 > 100 µM | MOLT-4 > 100 µM | SF-268 > 100 µM | IGROV-1 > 100 µM | SNB-19 > 100 µM | EKVX > 100 µM | SN12C > 100 µM | SF-295 > 100 µM | SK-MEL-28 > 100 µM | PC-3 > 100 µM | LOX IMVI > 100 µM | COLO 205 > 100 µM | MCF7 > 100 µM

Cc1cc(Cc2c(F)c(F)c(Cc3cc(C)no3)c(F)c2F)on1
inactive: CCRF-CEM > 100 µM | T47D > 100 µM | OVCAR-4 > 100 µM | K562 > 100 µM | A549 12.9 µM | MOLT-4 > 100 µM | SF-268 21.7 µM | IGROV-1 > 100 µM | SNB-19 36.7 µM | EKVX > 100 µM | SN12C > 100 µM | SF-295 39.9 µM | SK-MEL-28 > 100 µM | PC-3 > 100 µM | LOX IMVI 80.4 µM | COLO 205 > 100 µM | HOP-92 29 µM | MCF7 > 100 µM

COC(=O)C(NC(=O)C12CCC(C)(C(=O)O1)C2(C)C)c1cc(C(C)(C)C)c(O)c(C(C)(C)C)c1 (centres undefined)
inactive: CCRF-CEM 39.9 µM | T47D 81.7 µM | SW-620 77.3 µM | OVCAR-4 > 100 µM | K562 64 µM | A549 > 100 µM | MOLT-4 42.2 µM | SF-268 > 100 µM | IGROV-1 > 100 µM | SNB-19 > 100 µM | EKVX > 100 µM | SF-295 > 100 µM | SK-MEL-28 > 100 µM | PC-3 67 µM | LOX IMVI > 100 µM | COLO 205 49.4 µM | HOP-92 > 100 µM | MCF7 47.5 µM

COc1cc2c(cc1Cl)[n+]([O-])c(C#N)c(N1CCN(c3ccc([N+](=O)[O-])cc3)CC1)[n+]2[O-]
inactive: CCRF-CEM 8.73 µM | NCI-H460 7.78 µM | T47D 3.48 µM | SW-620 22.5 µM | OVCAR-4 30 µM | K562 9.29 µM | A549 11.6 µM | MOLT-4 5 µM | SF-268 13.1 µM | IGROV-1 2.17 µM | SNB-19 32 µM | EKVX 28.6 µM | SN12C 32.6 µM | SF-295 12.4 µM | SK-MEL-28 34.8 µM | PC-3 17.9 µM | LOX IMVI 4.68 µM | COLO 205 34.4 µM | MCF7 6 µM

N#Cc1cccc2c1Sc1ccccc1N2
inactive: CCRF-CEM 7.48 µM | NCI-H460 32.5 µM | T47D 19.2 µM | SW-620 20.7 µM | K562 17.4 µM | A549 24.5 µM | MOLT-4 11.5 µM | SF-268 30.8 µM | IGROV-1 45.1 µM | SNB-19 33.1 µM | EKVX 19.1 µM | SN12C 39.2 µM | SF-295 23.9 µM | PC-3 14.1 µM | LOX IMVI 10.4 µM | COLO 205 19.8 µM | HOP-92 32.3 µM | MCF7 30.2 µM

CC(CC[C@@H](O)C(C)(C)O)C1[C@@H](O)CC2(C)C3CC(O)C4C(C)(C)[C@@H](OC5OC(CO)C(O)C(O)C5O)CC[C@@]45C[C@@]35CC[C@]12C (some centres undefined)
inactive: CCRF-CEM > 10 µM | NCI-H460 > 10 µM | T47D > 10 µM | SW-620 > 10 µM | OVCAR-4 > 10 µM | K562 > 10 µM | A549 > 10 µM | MOLT-4 > 10 µM | SF-268 > 10 µM | IGROV-1 > 10 µM | SNB-19 > 10 µM | EKVX > 10 µM | SN12C > 10 µM | SF-295 > 10 µM | SK-MEL-28 > 10 µM | PC-3 > 10 µM | COLO 205 > 10 µM | HOP-92 > 10 µM | MCF7 > 10 µM
